Test results published in patent US11081236B2, “Diagnostic and therapeutic methods for the treatment of breast cancer” (GENENTECH, INC., priority 2018, dated 2021).

How the values were obtained:
Format in all cases: cell-based
[1] = test system: CAMA1; test: RNA sequencing after E2 or DMSO treatment, CAMA1
Protocol: (§1) To derive a transcriptional signature of ER pathway activity, RNA sequencing was performed on seven breast cancer cell lines following treatment with either DMSO or 1 μM estradiol (E2) for 24 hours. Briefly, RNA libraries for cell lines were made with TRUSEQ® RNA sample preparation kit (ILLUMINA®) according to the manufacturer's protocol. The libraries were sequenced on an ILLUMINA® Hi Seq 2000, using 1-4 lanes per cell line. RNA sequencing (RNA-seq) data were analyzed with HTSeqGenie (R package version 3.14.0) in BioConductor (Huber et al. Nature Methods. 112:115-21, 2015) as follows: reads were trimmed to 75 base pairs (bp), filtered for quality and rRNA/adapter contamination, and aligned to the reference genome GRCh38 using GSNAP (Wu et al. Bioinforma Oxf Engl. 26:873-81, 2010). Gene expression was quantified as Reads per Kilobase of exon model per Million mapped reads normalized by size factor (nRPKM), defined as number of reads aligning to a gene in a sample/(total number of uniquely mapped reads for that sample x gene length x size factor). Genes without gene symbol and genes of uncertain function (LOC and Corf symbols) were excluded.

[2] = test system: T47D; test: RNA sequencing after E2 or DMSO treatment, T47D
Protocol: as §1

[3] = test system: MCF7; test: RNA sequencing after E2 or DMSO treatment, MCF7
Protocol: as §1

[4] = test system: HCC1500; test: RNA sequencing after E2 or DMSO treatment, HCC1500
Protocol: as §1

[5] = gene BAMBI, 1 μM E2 24 hours vs DMSO
[6] = gene BCAS1, 1 μM E2 24 hours vs DMSO
[7] = gene CCNG2, 1 μM E2 24 hours vs DMSO
[8] = gene DDEE4, 1 μM E2 24 hours vs DMSO
[9] = gene EGLN3, 1 μM E2 24 hours vs DMSO
[10] = gene FAM1718, 1 μM E2 24 hours vs DMSO
[11] = gene GRM4, 1 μM E2 24 hours vs DMSO
[12] = gene IL1R1, 1 μM E2 24 hours vs DMSO
[13] = gene LIPH, 1 μM E2 24 hours vs DMSO
[14] = gene NBEA, 1 μM E2 24 hours vs DMSO
[15] = gene PNPLA7, 1 μM E2 24 hours vs DMSO
[16] = gene PSCA, 1 μM E2 24 hours vs DMSO
[17] = gene SEMASE, 1 μM E2 24 hours vs DMSO
[18] = gene SSPO, 1 μM E2 24 hours vs DMSO
[19] = gene STON1, 1 μM E2 24 hours vs DMSO
[20] = gene TGFB3, 1 μM E2 24 hours vs DMSO
[21] = gene TP53INP1, 1 μM E2 24 hours vs DMSO
[22] = gene TP53INP2, 1 μM E2 24 hours vs DMSO

C[C@]12CC[C@@H]3c4ccc(O)cc4CC[C@H]3[C@@H]1CC[C@@H]2O [Compound E2, estradiol]
Log2 FC E2 vs no E2: BAMBI [1, 5]: −1.072
Log2 FC E2 vs no E2: BCAS1 [1, 6]: −2.311
Log2 FC E2 vs no E2: CCNG2 [1, 7]: −2.094
Log2 FC E2 vs no E2: DDEE4 [1, 8]: −2.737
Log2 FC E2 vs no E2: EGLN3 [1, 9]: −1.533
Log2 FC E2 vs no E2: FAM1718 [1, 10]: −2.271
Log2 FC E2 vs no E2: GRM4 [1, 11]: −2.021
Log2 FC E2 vs no E2: IL1R1 [1, 12]: −1.686
Log2 FC E2 vs no E2: LIPH [1, 13]: −1.583
Log2 FC E2 vs no E2: NBEA [1, 14]: −1.550
Log2 FC E2 vs no E2: PNPLA7 [1, 15]: −2.068
Log2 FC E2 vs no E2: PSCA [1, 16]: −3.517
Log2 FC E2 vs no E2: SEMASE [1, 17]: −1.374
Log2 FC E2 vs no E2: SSPO [1, 18]: −2.298
Log2 FC E2 vs no E2: STON1 [1, 19]: −2.609
Log2 FC E2 vs no E2: TGFB3 [1, 20]: −1.444
Log2 FC E2 vs no E2: TP53INP1 [1, 21]: −3.177
Log2 FC E2 vs no E2: TP53INP2 [1, 22]: −2.068
Log2 FC E2 vs no E2: BAMBI [2, 5]: −1.394
Log2 FC E2 vs no E2: BCAS1 [2, 6]: −2.536
Log2 FC E2 vs no E2: CCNG2 [2, 7]: −1.310
Log2 FC E2 vs no E2: DDEE4 [2, 8]: −1.878
Log2 FC E2 vs no E2: EGLN3 [2, 9]: −2.052
Log2 FC E2 vs no E2: FAM1718 [2, 10]: −1.158
Log2 FC E2 vs no E2: GRM4 [2, 11]: −1.340
Log2 FC E2 vs no E2: IL1R1 [2, 12]: −2.433
Log2 FC E2 vs no E2: LIPH [2, 13]: −1.330
Log2 FC E2 vs no E2: NBEA [2, 14]: −1.368
Log2 FC E2 vs no E2: PNPLA7 [2, 15]: −1.211
Log2 FC E2 vs no E2: PSCA [2, 16]: −1.253
Log2 FC E2 vs no E2: SEMASE [2, 17]: −0.741
Log2 FC E2 vs no E2: SSPO [2, 18]: −1.181
Log2 FC E2 vs no E2: STON1 [2, 19]: −2.304
Log2 FC E2 vs no E2: TGFB3 [2, 20]: −1.263
Log2 FC E2 vs no E2: TP53INP1 [2, 21]: −1.363
Log2 FC E2 vs no E2: TP53INP2 [2, 22]: −0.959
Log2 FC E2 vs no E2: BAMBI [3, 5]: −0.571
Log2 FC E2 vs no E2: BCAS1 [3, 6]: −0.981
Log2 FC E2 vs no E2: CCNG2 [3, 7]: −1.267
Log2 FC E2 vs no E2: DDEE4 [3, 8]: −1.080
Log2 FC E2 vs no E2: EGLN3 [3, 9]: −1.090
Log2 FC E2 vs no E2: FAM1718 [3, 10]: −1.287
Log2 FC E2 vs no E2: GRM4 [3, 11]: −1.106
Log2 FC E2 vs no E2: IL1R1 [3, 12]: −2.160
Log2 FC E2 vs no E2: LIPH [3, 13]: −1.170
Log2 FC E2 vs no E2: NBEA [3, 14]: −1.132
Log2 FC E2 vs no E2: PNPLA7 [3, 15]: −1.046
Log2 FC E2 vs no E2: PSCA [3, 16]: −2.199
Log2 FC E2 vs no E2: SEMASE [3, 17]: −1.034
Log2 FC E2 vs no E2: SSPO [3, 18]: −1.338
Log2 FC E2 vs no E2: STON1 [3, 19]: −2.067
Log2 FC E2 vs no E2: TGFB3 [3, 20]: −1.707
Log2 FC E2 vs no E2: TP53INP1 [3, 21]: −1.816
Log2 FC E2 vs no E2: TP53INP2 [3, 22]: −1.207
Log2 FC E2 vs no E2: BAMBI [4, 5]: −1.438
Log2 FC E2 vs no E2: BCAS1 [4, 6]: −2.105
Log2 FC E2 vs no E2: CCNG2 [4, 7]: −1.525
Log2 FC E2 vs no E2: DDEE4 [4, 8]: −1.865
Log2 FC E2 vs no E2: EGLN3 [4, 9]: −2.504
Log2 FC E2 vs no E2: FAM1718 [4, 10]: −0.683
Log2 FC E2 vs no E2: GRM4 [4, 11]: −1.071
Log2 FC E2 vs no E2: IL1R1 [4, 12]: −1.943
Log2 FC E2 vs no E2: LIPH [4, 13]: −1.384
